What was measured:
NMRAL1 = NMRAL1 (Chlorocebus sabaeus, UniProt A0A0D9R9W0); assay: NMRAL1 dimerization (western blot, in cells and purified protein); assay type: biochemical; settings: in cells and with purified NMRAL1 protein
Excerpt: In these proteins, we separately purified the proteins of NSP1α, NSP12, and NMRAL1. […] We speculate that NMRAL1 may be the primary target of NTZ action. […] Previous studies have shown NMRAL1 inhibits retinoic acid-inducible gene I (RIG-I) mediated antiviral responses. NTZ has been reported to activate the RIG-I pathway and induce an increase in IFN-β[25], which our findings corroborate (Fig. 6e–j). […] Differential Scanning Fluorimetry (DSF) confirmed NTZ binding to NMRAL1 (Fig. 6n). […] Molecular dynamics (MD) simulations were conducted for a more accurate understanding of TIZ’s role within the NMRAL1 dimer. Fluctuations or reductions in root-mean-square deviation (RMSD), Rg, and hydrogen bond count data after 80 ns indicated significant changes in the NMRAL1 system (Supplementary Fig. 12 a, b, d). […] TIZ primarily interacted with A chain’s LYS41, LYS42, LYS45, and B chain’s LYS92, LYS89, LYS95, GLN93, LEU96, LYS118, and ARG103, with B chain’s LYS92 and LYS89 and A chain’s LYS41 being the hotspots with binding energies greater than −1 kcal/mol (Supplementary Fig. 13). […]
For Western blot analysis, protein samples were heated at 95 °C for 8 min and then cooled to room temperature. […] The protein signals were detected using a chemiluminescent substrate (34577, Thermo) and visualized using the Gel Doc XR+ molecular imager (Bio-Rad).

PRRSV VR-2332 = assay: Time-of-addition and lifecycle-stage experiments in Marc-145 cells; assay type: cell-based, Porcine Reproductive and Respiratory Syndrome Virus
Excerpt: The pronounced antiviral phenotype led us to explore the mechanism behind NTZ’s inhibition of PRRSV proliferation. We adopted a classic approach of administering the drug at various time points to study NTZ’s effect on the PRRSV lifecycle (Supplementary Fig. 9a). […] Identifying the target protein of NTZ became imperative. Using the isothermal shift assay (iTSA), we discovered 26 potential NTZ targets (Fig. 5a). Further, Cellular Thermal Shift Assay-Western Blot (CETSA-WB) temperature range (TR) experiment indicated Glycine amidinotransferase mitochondrial (GATM), NMRAL1, and PRRSV proteins NSP1α and NSP12 as potential NTZ targets (Fig. 5b, c). The compound concentration range (CCR) experiment also supported these four proteins as potential NTZ targets (Fig. 5d).
Supplementary Fig. 9: NTZ Inhibition of PRRSV Replication Stages.
(a) Schematic of the classic experimental approach of adding the drug at different time points. […]
(c) Viral inactivation (dark purple): PRRSV was pre-incubated with the compound for 1 hour in the incubator before transferring to monolayer Marc-145 cells, followed by medium change after 2 hours. […] All samples were collected and analyzed at 48 […]
hours. […] NS indicates P > 0.0332, calculated via two-way ANOVA with Dunnett’s multiple-comparison test (b and c); P-values < 0.0332 were considered significant.

Chain of NMRAL1 (A0A0D9R9W0 entry or part of it): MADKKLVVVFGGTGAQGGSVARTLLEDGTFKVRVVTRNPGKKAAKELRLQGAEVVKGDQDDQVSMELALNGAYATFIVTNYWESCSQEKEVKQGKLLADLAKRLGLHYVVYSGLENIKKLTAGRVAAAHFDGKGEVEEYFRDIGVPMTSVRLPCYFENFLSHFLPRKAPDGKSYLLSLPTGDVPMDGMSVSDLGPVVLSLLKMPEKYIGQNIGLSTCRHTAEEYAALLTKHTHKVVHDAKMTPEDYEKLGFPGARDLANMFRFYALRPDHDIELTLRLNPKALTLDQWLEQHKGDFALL

Question: Which NMRAL1 dimer formation (NMRAL1) does the source give for `CC(=O)Oc1ccccc1C(=O)Nc1ncc([N+](=O)[O-])s1` [Nitazoxanide] here?
Answer: increased NMRAL1 dimer formation

Question: And the “PRRSV proliferation, late addition” value (PRRSV VR-2332; added 16 h post viral inoculation)?
Answer: significantly inhibited PRRSV proliferation

Question: What about the “stage of PRRSV lifecycle affected” value (PRRSV VR-2332; adsorption, entry, replication, release) of the same molecule?
Answer: primarily affects PRRSV replication

From paper PMC11156899, “High-throughput screening unveils nitazoxanide as a potent PRRSV inhibitor by targeting NMRAL1” (Nature Communications, 2024)
